Laboratory results reported in patent publication US6875736B2, “Methods for identifying RNA binding compounds” (priority 1999, dated 2005).
Non-standard residues stand in square brackets, D forms with d. Residues, ends and D or L forms follow the SMILES beside them.

Each compound was assayed on dye-labeled TAR RNA (assay: Equilibrium interaction of dye-labeled TAR RNA with bead-tethered tripeptide). Conditions: dye-labeled TAR RNA 1 μM, TK buffer, 4° C., 5 hours.
Format: binding, HIV-1
Procedure: Second, the equilibrium interaction between dye-labeled TAR RNA and a tripeptide tethered to beads was examined by incubating a suspension of beads containing tripeptide ID#1 in TK buffer (400 μL) with dye-labeled TAR RNA (1 μM) at 4° C. for 5 hours. Beads were stained red upon TAR RNA binding. The interaction between dye-labeled TAR RNA and tripeptide ID #1 is reversible and can be abolished by the addition of unlabeled TAR RNA or tripeptide ID#1 as a competitor. Finally, screening the library with dye-labeled TAR RNA was carried out in the presence of excess unlabeled bulge mutant TAR RNA, inhibiting non-specific TAR RNA-peptide interactions.
For `NCCCC[C@H](N)C(=O)N[C@H](CCCCN)C(=O)N[C@@H](CC(N)=O)C(=O)O` [ID #1, H2N-(L)Lys-(D)Lys-(L)Asn-OH] (H-Lys-[dK]-Asn-OH), the “bead staining upon dye-labeled TAR RNA binding” value was “stained red”.

What follows are compounds tested on TAR RNA (assay: NMR (TOCSY/NOESY) of TAR RNA with ligand). Conditions: 1 to 2 mM RNA and ligand, 5 mM phosphate buffer pH 5.5.
Format: binding, HIV-1
Procedure: NMR Spectroscopy. NMR experiments were performed to determine the interaction sites of tripeptide ID#1 on TAR RNA. NMR spectra of free TAR RNA and TAR RNA complexed with tripeptide ID#1 were recorded. Due to the spectral overlap, it was impossible to follow all but a few well-isolated resonances by conventional 1-dimensional experiments. Therefore, two-dimensional NOESY and TOCSY experiments were performed. All spectra were recorded on a Bruker AMX-500 NMR spectrometer operating at 500 MHz for ^1H equipped with triple resonance probe and H-broadband inverse detection probes. The 1D and 2D ^1H spectra were recorded at approximately 1 to 2 mM RNA and tripeptide ID#1 concentrations in 5 mM phosphate buffer (pH 5.5), with up to 100 mM NaCl. All other conditions were the same as described earlier by Aboul-ela et al. ((1995) J. Mol. Biol. 253, 313-332.). Complete TAR RNA assignments were obtained. Increasing amounts of tripeptide 1 were added to TAR RNA and the spectral changes were monitored by two-dimensional TOCSY experiments. The TOCSY spectrum contains a region where only pyrimidine H5-H6 resonances are found; this region has a well-dispersed 2D spectrum. Resonances in the free RNA and RNA-ligand complexes were assigned by NOESY experiments. […]
For `NCCCC[C@H](N)C(=O)N[C@H](CCCCN)C(=O)N[C@@H](CC(N)=O)C(=O)O` [ID #1, H2N-(L)Lys-(D)Lys-(L)Asn-OH] (H-Lys-[dK]-Asn-OH), the “shift of TAR RNA resonances in TOCSY spectra” value was “Resonances in the bulge region, U23 and C24, were shifted”.

These compounds were tested on TAR RNA (assay: On-bead screening of encoded tripeptide library with disperse red-labeled TAR RNA). Conditions: bead colour with 250 nM disperse red-labeled TAR RNA, 4° C.; red after 2 days, pink-red after 3 further days.
Format: binding, HIV-1
Procedure: Screening the library with TAR RNA. Three copies of the tripeptide library on encoded beads, which contain more than 95% of the members of the library, were placed in an eppendoff tube and washed with water (500 μL×5) and TK buffer (50 mM Tris-HCl (pH 7.4), 20 mM KCl, 0.1% Triton X-100) (500 μL×4), which is commonly used for the formation of Tat-TAR complexes in vitro (Churcher et al. (1993) J. Mol. Biol. 230, 90-110). After filtration, the beads were suspended in TK buffer (400 μL) and bovine serum albumin (0.1 mg/mL) at room temperature for 1 hour to reduce nonspecific binding. The aqueous phase was removed, and the beads were washed with TK buffer (500 μL×3). After filtration, the beads were resuspended in […] TK buffer, 2.5 μM of bulge mutant TAR RNA was added, and the suspension was stirred at 4° C. for 1 day. The buffer was removed, the beads were resuspended in […] TK buffer, and 250 nM disperse red-dye-labeled-TAR RNA and 2.5 μM bulge mutant TAR RNA were added. After 2 days of stirring at 4° C., the buffer was removed, and the remaining beads were washed with water (500 μL×3). Two red beads were picked under a microscope and placed in separate capillary tubes. The remaining beads were further incubated with a mixture of disperse-red-dye-labeled TAR RNA and bulge mutant TAR RNA for 3 days, as described above. During the second screening, eight beads turned red. These beads were picked and placed in capillary tubes.
Decoding the structures of RNA-binding ligands. A disperse-red dye labeled encoded bead was placed in a 25 μL micro capillary tube containing dimethylformamide (DMF) (2 μL) and the bead was washed with DMF(5 μL×4). After draining the solvent, the bead was resuspended in 2 μL DMF and the micro capillary tube was centrifuged for 4 min and then flame sealed. Each capillary tube containing a bead was then irradiated with UV radiation at 350 nm for 4 hours and spun for 5 minutes in a centrifuge. The capillary tube was opened and the cleaved tag alcohols were silylated with N, O-bis(trimethylsilyl)acetamide in a micro syringe. The N, O-bis(trimethylsilyl)acetamide derivatives (1 μL) were analyzed using electron capture gas chromatography (“ECGC”). A Hewlett Packard 6890 series Gas Chromatography system, equipped with a micro electron capture detector (μ-ECD) and a HP Chemstation operating system, was used for all decoding analyses. The GC was operated in splitless inlet mode, using helium as the carrier gas. A 35 m×0.2 mm i.d.×0.33 μm film thickness HP-Ultra 1 column was used with a temperature program of 1 min isothermal at 200° C. followed by heating at 10° C./min to 320° C. The μ-ECD make up gas was nitrogen.
On-bead selection of structure-specific TAR RNA binding compounds. To identify tripeptides that bind to TAR RNA, the dye disperse red was covalently attached to TAR RNA, and the labeled RNA was incubated in a suspension of library beads made using the split synthesis method. […] Nevertheless, the dye-TAR RNA conjugate was able to enter the beads and bind in a structure-dependent manner to tripeptides attached thereto. The red color of the dye was clearly evenly distributed throughout the translucent bead. Broken beads were not selected. Peptides specific for portions of TAR RNA other than the bulge region were blocked using a relatively large concentration of an unlabeled bulge mutant TAR RNA. A small amount of detergent and low RNA concentrations (250 nM) also minimized non-specific binding.
Ligand Sequence Analysis. Upon incubating the dye-TAR RNA conjugate with the library, only two beads were stained red. These two beads were separated from the rest of the library, which was allowed to incubate with the dye-TAR RNA conjugate for 3 days at 4° C. […] At the end of the second incubation, only eight additional beads were stained pink-red.
H2N-(L)Lys-(D)Lys-(D)Asn-OH [ID #2] was tested, and the Color was “Pink”.
H2N-(D)Thr-(D)Lys-(L)Phe-OH [ID #8] was tested, and the Color was “Pink”.
`NCCCC[C@H](N)C(=O)N[C@H](CCCCN)C(=O)N[C@@H](CC(N)=O)C(=O)O` [ID #1, H2N-(L)Lys-(D)Lys-(L)Asn-OH] (H-Lys-[dK]-Asn-OH) was tested, and the Color was “Red”.
H2N-(L)Arg-(D)Lys-(L)Arg-OH [ID #6] was tested, and the Color was “Pink”.
For H2N-(L)Arg-(D)Lys-(L)Asn-OH [ID #4], the Color was “Pink”.

Same assay, conditions: number of stained beads decoded with this sequence; three copies of library; bead peptides N-acetylated
Work on H2N-(L)Lys-(D)Lys-(D)Asn-OH [ID #2] yielded a Frequency of 1.
H2N-(D)Thr-(D)Lys-(L)Phe-OH [ID #8] was tested, and the Frequency was 1.
`NCCCC[C@H](N)C(=O)N[C@H](CCCCN)C(=O)N[C@@H](CC(N)=O)C(=O)O` [ID #1, H2N-(L)Lys-(D)Lys-(L)Asn-OH] (H-Lys-[dK]-Asn-OH) was tested, and the Frequency was 2.
With H2N-(L)Arg-(D)Lys-(L)Arg-OH [ID #6] the Frequency was 1.
For H2N-(L)Arg-(D)Lys-(L)Asn-OH [ID #4], the Frequency was 1.

What follows are compounds tested on HL3T1 cells (assay: not given). Conditions: not given.
In the case of `NCCCC[C@H](N)C(=O)N[C@H](CCCCN)C(=O)N[C@@H](CC(N)=O)C(=O)O` [ID #1, H2N-(L)Lys-(D)Lys-(L)Asn-OH] (H-Lys-[dK]-Asn-OH), the “Cell viability / toxicity to the cells” value is reported as “not toxic”.

Each compound was assayed on wild-type TAR RNA (assay: Solid-phase RNA-peptide binding assay (dissociation constant)). Conditions: KD of a basic Tat peptide / KD of inhibitor.
Parameters: species or system HIV-1
Excerpt: Solid-phase RNA-peptide binding assays. TAR RNA binding compounds found and decoded as described above (shown in Table 1) were synthesized on TENTAGEL S-NH2 (4.6 μmole). All fluorenylmethoxycarbonyl (Fmoc)-protected amino acids were purchased from Bachem (Torrance, Calif.). 1-hydroxybenzotriazole (HOBT) and diisopropylcarbodiimide (DIPCDI) were obtained from Aldrich Chemical Co., Milwaukee, Wis. Piperidine and trifluoroacetic acid were purchased from Applied Biosystems Division, Perkin-Elmer. All ligands were synthesized manually according to standard solid-phase peptide synthesis protocols. Coupling efficiencies of residues at each step were monitored using a standard Kaiser test. Deprotection of tripeptides was carried out in 10% water in trifluoroacetic acid (1 mL) for 16 hours at room temperature. After filtration of solvents, the resin was washed with water (1 mL×4), DMF (1 mL×4), and dichloromethane (1 mL×4), and dried under reduced pressure. Ten beads with attached tripeptides were placed in an Eppendorff tube and washed with TK buffer (200 μL×3). The beads were suspended in TK buffer (300 μL) and incubated with TAR RNA (1.95 μM) overnight at 4° C. The suspension was spun in a centrifuge, and the supernatant containing unbound RNA was transferred to a cuvette for optical density measurements at 260 nm using a Shimadzu UV-1601 spectrometer. Equilibrium concentrations of RNA were determined from these measurements. Given that the initial concentrations of ligand and RNA are known, and assuming simple bimolecular receptor/substrate binding, a dissociation constant (KD) was calculated from known equations in order to determine which test compounds bind TAR RNA most tightly.
To verify that this assay reflected RNA-tripeptide interactions and to determine the affinity of these tripeptides for TAR RNA, the eight tripeptides were resynthesized and their dissociation constants with wild-type TAR RNA were measured. […] To compare the RNA binding affinities of 8 ligands to natural Tat peptide, a Tat-derived peptide (Gly48 to Arg57) containing the RNA-binding region of Tat protein was synthesized (FIG. 2(b)) (SEQ. ID. NO. 2). The dissociation constant of the Tat peptide-RNA complex was determined under the same conditions used for the tripeptide-RNA complexes. […] A relative dissociation constant (KREL) can be calculated as the ratios of the Tat peptide to tripeptide dissociation constants (KD) for TAR RNA. Tripeptide ID #1 binds TAR RNA with affinities higher than the wild-type Tat peptide.
Compound H2N-(L)Lys-(D)Lys-(D)Asn-OH [ID #2] has a KREL of 0.17.
For H2N-(D)Thr-(D)Lys-(L)Phe-OH [ID #8], the KREL was 0.35.
`NCCCC[C@H](N)C(=O)N[C@H](CCCCN)C(=O)N[C@@H](CC(N)=O)C(=O)O` [ID #1, H2N-(L)Lys-(D)Lys-(L)Asn-OH] (H-Lys-[dK]-Asn-OH) was tested, and the KREL was 1.73.
H2N-(L)Arg-(D)Lys-(L)Arg-OH [ID #6] was tested, and the KREL was 0.83.
H2N-(L)Arg-(D)Lys-(L)Asn-OH [ID #4] gave a KREL of 0.28.

Same assay, conditions: diastereomers of tripeptide ID#1
For H2N-(L)Lys-(D)Lys-(D)Asn-OH [ID #2], the “dissociation constant relative to tripeptide ID#1 (times higher)” value was “approximately 7 times”.

Same assay, conditions: wild-type TAR RNA, TK buffer, overnight at 4° C.; four independent experiments
Compound H2N-(L)Lys-(D)Lys-(D)Asn-OH [ID #2] has a Kd of 4170 nM.
With H2N-(D)Thr-(D)Lys-(L)Phe-OH [ID #8] the Kd was 2090 nM.
In the case of `NCCCC[C@H](N)C(=O)N[C@H](CCCCN)C(=O)N[C@@H](CC(N)=O)C(=O)O` [ID #1, H2N-(L)Lys-(D)Lys-(L)Asn-OH] (H-Lys-[dK]-Asn-OH), the Kd is reported as 420 ± 44 nM.
H2N-(L)Arg-(D)Lys-(L)Arg-OH [ID #6] showed a Kd of 878 ± 80 nM.
Work on H2N-(L)Arg-(D)Lys-(L)Asn-OH [ID #4] yielded a Kd of 2640 nM.

Same assay, conditions: wild-type TAR RNA, TK buffer, overnight at 4° C.; four independent experiments; listed as tripeptide ID#1
Compound `NCCCC[C@H](N)C(=O)N[C@H](CCCCN)C(=O)N[C@@H](CC(N)=O)C(=O)O` [ID #1, H2N-(L)Lys-(D)Lys-(L)Asn-OH] (H-Lys-[dK]-Asn-OH) has a Kd of 441 nM.

Each compound was assayed on Tat trans-activation (HIV-1 LTR promoter, CAT reporter gene) (assay: Inhibition of Tat trans-activation in HL3T1 cells (CAT reporter)). Conditions: 700 nM, CAT activity.
Format: cell-based
Procedure: (§1) Inhibition of Tat trans-activation in cellular assays. […] Cells were grown in 2 mL of Dulbecco's modified Eagle medium (DMEM) supplemented with 10% fetal calf serum in 60 mm dishes at 37° C. in 5% CO2 in a tissue culture incubator. Cells were refreshed by 2 mL DMEM before transfection. Transfection was started by dropwise addition of 250 μL 2×Hepes-buffered saline and maintenance at room temperature for 10 minutes. Approximately 10 μg of plasmids (pSV2Tat and pAL) and increasing amounts of tripeptide 1 were transfected in the presence of CaCl2 (final concentration 125 mM) and the cells were incubated for 4 hours at 37° C. in a tissue culture incubator. The medium was then discarded and the cells were subjected to glycerol shock (1.5 mL of 15%) for 45 seconds. Finally, the cells were washed twice with 5 mL phosphate-buffered saline (PBS) and were grown in 3 mL DMEM. DMEM was changed at 24 hours post-transfection, and cells were harvested 48 hours post-transfection. Cells were lysed in reporter lysis buffer (Promega). Aliquots were used for CAT and luciferase assays. Both activities were normalized to protein concentration determined by using a modified Bradford assay (Bio-Rad).
(§2) Inhibition of Tat trans-activation in vivo. […] Luciferase reporter gene provides an internal control.
For `NCCCC[C@H](N)C(=O)N[C@H](CCCCN)C(=O)N[C@@H](CC(N)=O)C(=O)O` [ID #1, H2N-(L)Lys-(D)Lys-(L)Asn-OH] (H-Lys-[dK]-Asn-OH), the Tat trans-activation inhibited was “more than 90%”.

What follows are compounds tested on luciferase gene (assay: Luciferase internal control in HL3T1 cells (pAL plasmid)). Conditions: increasing amounts of ligand.
Format: cell-based
Procedure: as §1, §2
In the case of `NCCCC[C@H](N)C(=O)N[C@H](CCCCN)C(=O)N[C@@H](CC(N)=O)C(=O)O` [ID #1, H2N-(L)Lys-(D)Lys-(L)Asn-OH] (H-Lys-[dK]-Asn-OH), the “Transcription of the luciferase gene” value is reported as “not affected”.
